Experimental findings from US9326503B2, “Biocide compositions comprising branched alkyl polyglycosides” (Cognis IP Management GmbH, priority 2009, dated 2016) are described below.

Assay [1] relates to barnyard grass and green foxtail. Briefly: Uptake of radio-labelled nicosulfuron with adjuvant, compared with crop oil concentrate. Format: in vivo. The conditions noted are these: adjuvant rate giving the same nicosulfuron uptake as COC (uptake with COC set to 100%); nicosulfuron (ACCENT WDG 75) 0.031% w/v. The method, then: A separate study was undertaken to compare the performance of the invented composition compared with an industry standard, more particularly a crop oil concentrate (COC), on the uptake of nicosulfuron on barnyard grass and green foxtail. Nicosulfuron as ACCENT® WDG 75 was used at 0.031% w/v (46.7 g active ingredient/150 l/ha). Radio-labelled nicosulfuron (50 mCi/mmol) was added to freshly prepared treatment solution 0.5 h prior to use. The ^14C nicosulfuron comprised 7% by mass. Spray solutions with nicosulfuron alone i.e. without adjuvant, were formulated in 50% acetone. All additives were used at the same concentration. The uptake using COC (Example C3) was set to 100%, therefore the data in Table 2, below, reflects the reduction in concentration of the other adjuvants in order to achieve the same level of uptake for COC. In other words, one can reduce the amount of adjuvant by 75-80% in order to achieve the same effects compared to the use of COC.

The test system of a further assay is Asian Soybean Rust. Briefly: Field trial in Brazil: soybean crop yield under Asian Soybean Rust, fungicide with or without adjuvant. Format: in vivo. The settings on record: where added, 150 ml/ha. The method, then: Field trials were conducted in Brazil. Two standard biocide compositions from the market were applied to soybean crops: OPERA® (BASF) contains 5% w/w epoxiconazole and 13.3% w/w pyraclostrobin, the former is a preventive and curative fungicide, the latter a protectant, curative, and translaminar fungicide. FOLICUR® (Bayer CropScience) contains tebuconazole, a fungicide with protective, curative, and eradicant properties. The two compositions were applied at full recommended rate and at a 50% level. These experiments are compared to similar treatment of the plants adding in both cases adjuvant mixtures at a concentration of 150 ml/ha.

The mark [2] stands for this setting: FOLICUR (tebuconazole) at full recommended rate.
The mark [3] stands for this setting: FOLICUR at 50% of the full recommended rate.
The mark [4] stands for this setting: OPERA (5% epoxiconazole, 13.3% pyraclostrobin) at full recommended rate.
[5] abbreviates: OPERA at 50% of the full recommended rate.

Consider “2-Octyldodecyl polyglucoside (DP 1.7) [Example 1]”, for which the Adjuvant rate in assay [1] came to 0.24 % v/v. The “Soybean Crop Yield influenced by Asian Soybean Rust - relative to control (=100), FOLICUR” value in the assay on Asian Soybean Rust (setting [2]) is 141; in the assay on Asian Soybean Rust (setting [3]) it was 161. For the same substance, the “Soybean Crop Yield influenced by Asian Soybean Rust - relative to control (=100), OPERA” value with Asian Soybean Rust (setting [4]) amounted to 161; in the assay on Asian Soybean Rust (setting [5]) it was 137.

With “Cetearyl polyglucoside (DP 1.5) [C1, reference compound]”, the Adjuvant rate in assay [1] is 0.19 % v/v. Besides, the “Soybean Crop Yield influenced by Asian Soybean Rust - relative to control (=100), FOLICUR” value in the assay on Asian Soybean Rust (setting [2]) stood at 127; in the assay with Asian Soybean Rust (setting [3]) it was 149. Moreover, the “Soybean Crop Yield influenced by Asian Soybean Rust - relative to control (=100), OPERA” value with Asian Soybean Rust (setting [4]) was 150; in the assay on Asian Soybean Rust (setting [5]), 129.

Turning to “Isostearyl polyglucoside (DP 1.5) [Example 2]”, the Adjuvant rate in assay [1] stood at 0.22 % v/v. The “Soybean Crop Yield influenced by Asian Soybean Rust - relative to control (=100), FOLICUR” value with Asian Soybean Rust (setting [2]) was determined as 135; in the assay on Asian Soybean Rust (setting [3]) it was 156. For the same substance, the “Soybean Crop Yield influenced by Asian Soybean Rust - relative to control (=100), OPERA” value in the assay with Asian Soybean Rust (setting [4]) is 153; with Asian Soybean Rust (setting [5]), 137.
